{"source": "patent EP0533352A2", "about": "(LYNXVALE LIMITED, priority 1991, dated 1993)", "key": {"[1]": {"test_system": "carbachol (5x10⁻⁶M) induced muscle contraction", "experiment": "Carbachol mediated muscle contractions of rabbit bladder muscle strips", "type": "cell-based", "conditions": "GABA: 10 strips, not in 6 strips, baclofen: 6 strips, not in 3 strips"}, "[2]": {"test_system": "Rabbit urinary bladder smooth muscle strips", "experiment": "Nerve mediated contractions of rabbit urinary bladder muscle strips induced by electrical field stimulation", "type": "cell-based", "conditions": "for effect on the frequency response curve: 1 to 40 Hz"}}, "note": "Read-outs that look alike come from different tables or passages of the source.", "data": [{"smiles": "NCC(CC(=O)O)c1ccc(Cl)cc1", "note": "(racemic) [(±) baclofen]", "values": [{"measurement": "inhibition of carbachol induced muscle contraction", "setting": "[1]", "result": "able to inhibit the muscle contraction"}, {"measurement": "EC₅₀ for inhibition of muscle contraction induced by electrical field stimulation", "setting": "[2]", "result": "7.26 (±1.2)x10⁻⁶ M"}, {"measurement": "maximum inhibition of muscle contraction induced by electrical field stimulation", "setting": "[2]", "result": "26.5(±1.58) %"}, {"measurement": "effect on the frequency response curve", "setting": "[2]; 1x10⁻⁴M baclofen, n=13", "result": "significant inhibitory effect"}]}, {"smiles": "NCC(O)(CS(=O)(=O)O)c1ccc(Cl)cc1", "note": "(centres unmarked) [2-hydroxysaclofen]", "values": [{"measurement": "antagonism of the inhibition produced by GABA (change of EC₅₀)", "setting": "[2]", "result": "significant antagonism"}, {"measurement": "change in the maximum response of GABA", "setting": "[2]", "result": "no significant difference"}]}, {"smiles": "NCCCP(O)O", "note": "[3-aminopropylphosphonous acid]", "values": [{"measurement": "EC50", "setting": "[2]; Oryctolagus cuniculus, average over seven experiments, preliminary experiments, read-out: EC₅₀ for inhibition of electrically stimulated contraction", "result": "0.25 ± 0.16", "unit": "µM"}, {"measurement": "maximum inhibition of muscle contraction induced by electrical field stimulation", "setting": "[2]; percentage inhibition of control contraction, 10 Hz, 0.2 ms pulse width, 30V for 3 s, mean ± S.E.M.", "result": "45 ± 18", "unit": "%"}]}, {"smiles": "NCCCC(=O)O", "note": "[GABA, gamma amino butyric acid]", "values": [{"measurement": "effect on the frequency response curve", "setting": "[2]; 1x10⁻⁵ GABA, n=15", "result": "significant right shift"}]}, {"smiles": "NCc1cc(=O)[nH]o1", "note": "[Muscimol, muscimol]", "values": [{"measurement": "inhibitory effect on nerve mediated muscle contraction", "setting": "[2]; concentration range of 1x10⁻⁸ to 1x10⁻⁵M, n=5", "result": "no inhibitory effect"}]}, {"smiles": "NC1=N[C@H](O)[C@H]2[C@H]3O[C@]4(O)O[C@@H]([C@@H](O)[C@@]2(N1)[C@@H]4O)[C@]3(O)CO", "note": "[tetrodotoxin]", "values": [{"measurement": "effect on contractions obtained by electrical field stimulation", "setting": "[2]", "result": "abolishing the contractions"}]}]}
